Counter-ions that a name gives are not always drawn. Like-named read-outs stand apart in the source and are kept apart here.
How the values were obtained:
[1] = molecular target: T1, Acetylcholinesterase (Rattus norvegicus, UniProt P37136); assay: biochemical; design: species or system Male Wistar rats
T1 construct: corpora striata dissected free, weighted and homogenized in 19 volumes; from tissue; host or cells: rat corpus striatum homogenate
T1 sequence (P37136 32-614): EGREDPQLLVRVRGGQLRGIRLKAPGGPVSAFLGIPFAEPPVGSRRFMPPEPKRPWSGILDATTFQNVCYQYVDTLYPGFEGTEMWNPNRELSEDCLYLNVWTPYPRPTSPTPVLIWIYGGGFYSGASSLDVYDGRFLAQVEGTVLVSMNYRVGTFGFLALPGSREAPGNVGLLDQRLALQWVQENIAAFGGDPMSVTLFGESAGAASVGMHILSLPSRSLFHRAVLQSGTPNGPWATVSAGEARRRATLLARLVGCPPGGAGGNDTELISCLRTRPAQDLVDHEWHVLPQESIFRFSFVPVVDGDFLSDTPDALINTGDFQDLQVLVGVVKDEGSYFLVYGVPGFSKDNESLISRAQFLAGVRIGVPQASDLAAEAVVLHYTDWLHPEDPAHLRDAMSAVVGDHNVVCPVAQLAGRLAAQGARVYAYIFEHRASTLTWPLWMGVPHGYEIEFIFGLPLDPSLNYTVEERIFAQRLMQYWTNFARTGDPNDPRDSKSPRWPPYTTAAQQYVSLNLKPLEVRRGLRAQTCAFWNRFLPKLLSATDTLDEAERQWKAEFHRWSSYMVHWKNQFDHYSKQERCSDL

[2] = molecular target: T2, Monoamine Oxidase A (Rattus norvegicus, UniProt P21396); assay: in vitro inhibition of monoamine oxidase assay, monoamine oxidase-A; assay type: biochemical, Male Wistar rats; conditions: rat brain mitochondrial monoamine oxidase; substrate [3H]-5-hydroxytryptamine 200 μM; 30 minutes at 37° C.
T2 construct: serves as the tissue source for mitochondrial monoamine oxidase; from tissue; host or cells: rat whole brain minus cerebellum, P2 mitochondrial pellet
T2 sequence (P21396 1-526): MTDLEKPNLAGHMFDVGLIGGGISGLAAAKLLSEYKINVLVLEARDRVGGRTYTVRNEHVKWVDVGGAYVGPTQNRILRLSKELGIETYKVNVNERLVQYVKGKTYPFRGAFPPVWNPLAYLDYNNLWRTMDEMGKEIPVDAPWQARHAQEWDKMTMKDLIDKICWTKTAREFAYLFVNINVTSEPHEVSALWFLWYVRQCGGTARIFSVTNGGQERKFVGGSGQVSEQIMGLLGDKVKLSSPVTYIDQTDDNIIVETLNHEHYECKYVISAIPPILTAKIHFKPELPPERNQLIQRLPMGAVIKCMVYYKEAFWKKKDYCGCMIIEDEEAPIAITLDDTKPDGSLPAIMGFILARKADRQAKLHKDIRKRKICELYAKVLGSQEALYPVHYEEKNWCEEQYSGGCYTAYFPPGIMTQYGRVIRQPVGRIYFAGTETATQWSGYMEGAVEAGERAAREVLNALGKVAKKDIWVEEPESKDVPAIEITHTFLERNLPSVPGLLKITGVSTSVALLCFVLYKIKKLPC
Protocol: In this assay, a modification of an assay described by M. V. Kindt, et al., Europ. J. Pharmnacol. 146: 313-318 1988.
1. Phosphate buffer (0.5 M), pH 7.4; 134.4 g dibasic sodium phosphate heptahydrate q.s. to 1 liter in distilled water (A) 17.3 g monobasic sodium phosphate q.s. to 250 ml in distilled water (B) Adjust pH of A to 7.4 by slowly adding B (volumes as needed) Dilute 1:10 in distilled water (0.05 M phosphate buffer, pH 7.4) 2. 0.25 M Sucrose (phosphate buffered): 21.4 g sucrose, q.s. to 250 nil with 0.05 M phosphate buffer a. serotonin creatine sulphate (5-hydroxytryptamine) is obtained from Sigma Chemical Company. A 5 mM stock solution ig made up in 0.01 N-hydrochloric acid. The solution is used to dilute the specific activity of the [^3H]-hydroxytryptamine. […]
b. [^3H]-5-hydroxytryptamine binoxalate (20-30 Ci/mmol) is obtained from New England Nuclear. c. Add 12 μl of [^3H]-5-hydroxytryptamine to 2 ml of the 5 mM 5-hydroxytryptamine solution. (Final amine concentration in the assay is 200 μM: see below.)
5. Equal amounts of monoamine oxidase-A (5-hydroxyttyptamine) and monoamine oxidase-B (β-phenethylamine) substrates are combined for simultaneously testing both monoamine oxidase types, i.e., mixed stock solution of 2.5 mM 5-hydroxytryptamine and 2.5 mM β-phenethylamine. 40 μl of this mixed solution gives a 200 μM final concentration of each amine in the assay. When testing only one monoamine oxidase type, the individual 5 mM stock solutions must be diluted 1:1 with distilled water prior to adding 40 μl to the incubation mixture; i.e., same 200 μM final amine concentration.
6. Stock solutions of test drugs are made up in appropriate vehicles and serially diluted to give final concentrations ranging from 10^−7 to 10^−3 molar in the assay. […]
Tubes are preincubated for 15 minutes at 37° C. and the assay is started by adding 40 μl of combined substrate ([^3H]-5-hydroxytryptamine and [^14C]-β-phenethylamin) at 15 second intervals. […] Tissue blank values are determined by adding the acid before the radioactive substrate. […] IC50 values are determined by log-probit analysis.

[3] = molecular target: T3, Monoamine Oxidase B (Rattus norvegicus, UniProt P19643); assay: in vitro inhibition of monoamine oxidase assay, monoamine oxidase-B; assay type: biochemical, Male Wistar rats; conditions: rat brain mitochondrial monoamine oxidase; substrate [14C]-β-phenethylamine 200 μM; 30 minutes at 37° C.
T3 construct: serves as the tissue source for mitochondrial monoamine oxidase; from tissue; host or cells: rat whole brain minus cerebellum, P2 mitochondrial pellet
T3 sequence (P19643 1-520): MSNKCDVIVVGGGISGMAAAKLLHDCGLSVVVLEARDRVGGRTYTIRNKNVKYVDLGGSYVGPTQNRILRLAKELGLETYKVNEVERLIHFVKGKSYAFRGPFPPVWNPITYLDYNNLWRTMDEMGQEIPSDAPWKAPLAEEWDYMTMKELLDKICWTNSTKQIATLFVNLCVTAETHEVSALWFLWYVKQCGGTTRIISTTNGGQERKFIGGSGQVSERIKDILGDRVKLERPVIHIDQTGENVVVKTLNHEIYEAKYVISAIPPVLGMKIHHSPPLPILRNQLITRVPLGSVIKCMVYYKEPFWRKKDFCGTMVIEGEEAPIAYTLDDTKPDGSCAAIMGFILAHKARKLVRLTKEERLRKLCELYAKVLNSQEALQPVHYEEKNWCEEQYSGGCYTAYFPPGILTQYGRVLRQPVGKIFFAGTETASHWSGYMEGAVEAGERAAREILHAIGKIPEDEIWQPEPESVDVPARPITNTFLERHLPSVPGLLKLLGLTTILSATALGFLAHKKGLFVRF
Protocol: Phosphate buffer (0.5 M), pH 7.4; 134.4 g dibasic sodium phosphate heptahydrate q.s. to 1 liter in distilled water (A) 17.3 g monobasic sodium phosphate q.s. to 250 ml in distilled water (B) Adjust pH of A to 7.4 by slowly adding B (volumes as needed) Dilute 1:10 in distilled water (0.05 M phosphate buffer, pH 7.4) 2. 0.25 M Sucrose (phosphate buffered): 21.4 g sucrose, q.s. to 250 nil with 0.05 M phosphate buffer a. β-phenethylamine is obtained from Sigma Chemical Company. A 5 mM stock solution is made up in 0.01 N-hydrochloric acid. The solution is used to dilute the specific activity of the [^14C]-β-phenethylamine.
b. β-[ethyl-1-^14C]-phenethylamine hydrochloride (40-50 mCi/mmol) is obtained from New England Nuclear. c. Add 12 μl of [^14C]-β-phenothylaamine to 2 ml of the 5 mM β-phenethylamine solution. (Final amine concentration in the assay is 200 μM: see below.) […]

Question: Which IC50 [1] does the source give for CN(C)C(=O)Oc1ccc2c(c1)c1c(n2C)C2(CCNCC2)CC1 [1,4-Dihydro-7-dimethylaminocarbonyloxy-4-methylspirorcyclopentfblindole-3(2H), 4′-piperidine]hemihydrate] here?
Answer: Its IC50 is 64 µM.

Question: For COc1ccc(NN=C2CCCC23CCNCC3)cc1 (as salt: hydrochloride) [8-Azaspiror4,5]decane-1-[N′-(4-methoxy)phenyl]hydrazone hydrochloride], which melting point is on record?
Answer: The melting point was 252 to 253 °C.

Question: For Cn1c2c(c3cc(O)ccc31)CCC21CCN(Cc2ccccc2)CC1 [1,4-Dihydro-7-hydroxy-4-methyl-1′-phenylmethylspiro[cyclopent[b]indole-3(2H), 4′-piperidine hydrochloride], which IC50 [1] is on record?
Answer: Its IC50 is 20.4 µM.

Question: With COc1ccc(CN2CCC3(CCc4c3n(C)c3ccccc43)CC2)cc1 [1,4-Dihydro-1′-(4-methoxyphenyl)methyl-4-methylspiro[cyclopent[b]indole-3(2H), 4′-piperidine]] as the molecule, how does the IC50 [2] read?
Answer: The IC50 was 98.6 µM.

Question: What about the IC50 [3] of the same molecule?
Answer: Its IC50 is 125 µM.

Question: And the IC50 ([1]; read-out: Inhibition of Acetylcholinesterase Activity IC50)?
Answer: The IC50 was 65.2 µM.

Question: For Cn1c2c(c3ccccc31)CCC21CCNCC1 [1,4-Dihydro-4-methylspiro[cyclopent[b]indole-3(2H), 4′-piperidine]hydrochloride], which IC50 [1] is on record?
Answer: The IC50 was 84.1 µM.

Question: Which IC50 [2] does the source give for COc1cccc(CN2CCC3(CCc4c3n(C)c3ccccc43)CC2)c1 [1,4-Dihydro-1′-(3-methoxyphenyl)methyl-4-methylspiro[cyclopent[b]indole-3(2H), 4′piperidine]] here?
Answer: The IC50 was 51.2 µM.

Question: For COc1ccc(NN=C2CCCC23CCNCC3)cc1 [8-Azaspiror4,5]decane-1-[N′-(4-methoxy)phenyl]hydrazone hydrochloride], which IC50 [2] is on record?
Answer: The IC50 was 37.2 µM.

Question: What about the IC50 [3] of the same molecule?
Answer: Its IC50 is 3.7 µM.

Source: patent US6479501B2 (priority 1996, dated 2002)
